For the assay, the target named is T1, Human BLT2 Receptor (Homo sapiens, UniProt Q9NPC1).
T1 construct: host or cells: BLT2 HEK293T cells transiently transfected with chimeric G protein Gαqi5
T1 sequence (Q9NPC1 1-358): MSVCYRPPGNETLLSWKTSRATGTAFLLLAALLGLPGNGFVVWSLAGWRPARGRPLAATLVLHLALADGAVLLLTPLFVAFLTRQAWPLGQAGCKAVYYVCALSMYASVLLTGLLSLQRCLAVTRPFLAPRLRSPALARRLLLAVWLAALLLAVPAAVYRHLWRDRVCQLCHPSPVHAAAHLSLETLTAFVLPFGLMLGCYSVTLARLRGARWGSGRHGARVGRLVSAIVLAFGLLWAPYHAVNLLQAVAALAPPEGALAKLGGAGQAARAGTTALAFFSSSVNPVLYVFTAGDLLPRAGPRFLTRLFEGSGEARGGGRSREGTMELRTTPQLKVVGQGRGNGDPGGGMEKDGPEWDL
Put plainly: Recombinant cell assay (calcium flux, antagonist mode, LTB4 pre-stimulation). It is filed as cell-based. The settings on record: pure compounds at 10 μM, 5 min pre-incubation; antagonist mode with LTB4; BLT2 HEK293T cells. The procedure:
A) Recombinant Cell Assay (Human BLT2 Receptor)
The BLT2 assay conducted was a functional cell based assay, with transiently transfected HEK293T cells (Transfection: with chimeric G protein Gαqi5; Minami et al, “Analysis of the effects of halothane on Gi-coupled muscarinic M2 receptor signal” Pharmacology (2004) 72: 205-12). […] The test items were measured subsequently in the antagonist mode as described above in a concentration of 10 μM (pure compounds) or 15 μg/ml (extracts and/or mixtures).
This assay was performed by Multispan, Inc., Hayward (CA, USA) under the catalog no C1272, the assay principle is outlined by Yokomizo (J Exp Med (2000) 192:421-432).
• Cells: BLT2 HEK293T cells transiently transfected with chimeric G protein Gαqi5 • Compounds: Test compounds dissolved in DMSO at a concentration of 10 mM or 100 mg/mL.
Calcium assay: Cells were seeded in 384-well plates at appropriate densities and cultured overnight. Calcium assays were conducted according to the manufacturer's protocol using Molecular Devices FLIPR Calcium 4 Assay kit. Calcium 4 dye loading buffer was added to the cells and incubated for one hour at 37° C. The test compounds were pre-incubated for 5 minutes at a final concentration of 10 μM or 15 μg/mL, respectively. Calcium flux was measured for 90 seconds with the respective agonist compound injected into the wells at 19th second. Agonist was used at a concentration in which maximum reaction was observed.
Data analysis: Calcium assay results are expressed as “RFU” (Relative Fluorescence Units) and are shown in the following table as “remaining % RFU against DMOS) (meaning % Increase in RFU after correction for DMSO and baseline). Two-tailed Student's t-test was used for treatment comparisons and statistic significance was defined as p<0.05.
For the compound `COC(=O)C1=CC(O)CC2C3(C)CC(c4ccoc4)OC(=O)C3CC(OC3OC(CO)C(O)C(O)C3O)C12C` (stereo not drawn) [COI 4, methyl 2-(furan-3-yl)-9-hydroxy-6a,10b-dimethyl-4-oxo-6-(3,4,5-trihydroxy-6-(hydroxymethyl)tetrahydro-2H-pyran-2-yloxy)-2,4,4a,5,6,6a,9,10,10a,10b-decahydro-1H-benzo[f]isochromene-7-carboxylate], the “remaining % RFU against DMSO [%]” value is given as 78.6%.

On to `COC(=O)C1=CCCC2C3(C)CC(c4ccoc4)OC(=O)C3CC(OC3OC(CO)C(OC4OC(CO)C(O)C(O)C4O)C(O)C3O)C12C` (stereo not drawn) [COI 5, methyl 6-(3,4-dihydroxy-6-(hydroxymethyl)-5-(3,4,5-trihydroxy-6-(hydroxymethyl)tetrahydro-2H-pyran-2-yloxy)tetrahydro-2H-pyran-2-yloxy)-2-(furan-3-yl)-6a,10b-dimethyl-4-oxo-2,4,4a,5,6,6a,9,10,10a,10b-decahydro-1H-benzo[f]isochromene-7-carboxylate], for which the “remaining % RFU against DMSO [%]” value is given as 79.7%.

As to `CC12CC(c3ccoc3)OC(=O)C1CC1OC(=O)C3(O)C(OC4OC(CO)C(O)C(O)C4O)CCC2C13C` (stereo not drawn) [COI 7, 9-(furan-3-yl)-3a-hydroxy-3a1,10a-dimethyl-3-(3,4,5-trihydroxy-6-(hydroxymethyl)tetrahydro-2H-pyran-2-yloxy)decahydroisobenzofuro[7,1-fg]isochromene-4,7(3a1H,5aH)-dione], the “remaining % RFU against DMSO [%]” value came to 83.2%.

The values are drawn from patent US8962575B2, “Clerodane derivatives for modulation of leukotriene receptor activity and related diseases” (Biotropics Malaysia Berhad, priority 2011, dated 2015).
